According to patent publication US12466800B2, “N-((1,2,3,5,6,7-hexahydro-S-indacen-4-yl)carbamoyl)-4, 5, 6, 7-tetrahydrobenzofuran-2-sulfonamide derivatives and related compounds as NLPR3 modulators for the treatment of multiple sclerosis (MS)” (Zomagen Biosciences Ltd, priority 2019, dated 2025):

The molecules below were run on IL-1b (assay: Mouse BMDM IL-1b Assay). Conditions: Macrophage; mouse bone marrow derived macrophages (C57BL6); 200 ng/mL LPS 3 h, compound 30 min, 5 mM ATP 45 min; IL-1b ELISA of supernatant.
Assay type: cell-based
Protocol: Example 20: Mouse BMDM IL-1b Assay
Mouse bone marrow cells from C57BL6 tibia and femur were culture in complete Isocov's Media supplemented with 20 ng/mL MCSF (BMDM media) at a density of 50 million cells/15 cm Petri dish. Fresh media was changed every 3 days, and bone marrow derived macrophages were collected, washed, and counted on day 7. Cells were seeded into 96 well plates at a density of 5×10^4 cells per well in 100 uL of BMDM media and cultured overnight. The cells were stimulated at 37° C. with 200 ng/mL Ultrapure LPS-B5 for 3 hours before pre-diluted compounds were added. 30 minutes after compound addition, 5 mM ATP was added for the secondary stimulation for 45 minutes. After stimulation, the plates were briefly spun down, and 50 uL of supernatant was harvested from each well. ELISA for mouse IL-1b was performed with 1:10 and 1:100 diluted supernatant using pre-coated kits. IL-1b concentrations were calculated based on pre-titrated standards, and compound inhibition IC50 is generated using the Levenberg Marquardt damped lease-square method.
In the case of `CC1(C)CC(=NO)c2cc(S(=O)(=O)NC(=O)Nc3c4c(cc5c3CCC5)CCC4)oc2C1` [Compound 49, N-((1,2,3,5,6,7-hexahydro-s-indacen-4-yl)carbamoyl)-4-(hydroxyimino)-6,6-dimethyl-4,5,6,7-tetrahydrobenzofuran-2-sulfonamide], the IC50 is reported as 0.1 to 1 µM.
In the case of `CC1(C)CCc2oc(S(=O)(=O)NC(=O)Nc3c4c(cc5c3CCC5)CCC4)cc2C1=NO` [Compound 50, N-((1,2,3,5,6,7-hexahydro-s-indacen-4-yl)carbamoyl)-4-(hydroxyimino)-5,5-dimethyl-4,5,6,7-tetrahydrobenzofuran-2-sulfonamide], the IC50 is reported as < 0.1 µM.
In the case of `Cc1c2c(c(NC(=O)NS(=O)(=O)c3cc4c(o3)CCCC4(C)O)c3c1CCC3)CCC2` (centres unmarked) [Compound 51, 4-hydroxy-4-methyl-N-((8-methyl-1,2,3,5,6,7-hexahydro-s-indacen-4-yl)carbamoyl)-4,5,6,7-tetrahydrobenzofuran-2-sulfonamide], the IC50 is reported as < 0.1 µM.
With `Cc1c2c(c(NC(=O)NS(=O)(=O)c3cc4c(o3)CCCC4O)c3c1CCC3)CCC2` (centres unmarked) [Compound 52, 4-hydroxy-N-((8-methyl-1,2,3,5,6,7-hexahydro-s-indacen-4-yl)carbamoyl)-4,5,6,7-tetrahydrobenzofuran-2-sulfonamide] the IC50 was < 0.1 µM.
With `CC1(O)CCCc2oc(S(=O)(=O)NC(=O)Nc3c4c(c(C#N)c5c3CCC5)CCC4)cc21` (centres unmarked) [Compound 53, N-((8-cyano-1,2,3,5,6,7-hexahydro-s-indacen-4-yl)carbamoyl)-4-hydroxy-4-methyl-4,5,6,7-tetrahydrobenzofuran-2-sulfonamide] the IC50 was 0.1 to 1 µM.
In the case of `N#Cc1c2c(c(NC(=O)NS(=O)(=O)c3cc4c(o3)CCCC4O)c3c1CCC3)CCC2` (centres unmarked) [Compound 54, N-((8-cyano-1,2,3,5,6,7-hexahydro-s-indacen-4-yl)carbamoyl)-4-hydroxy-4,5,6,7-tetrahydrobenzofuran-2-sulfonamide], the IC50 is reported as 0.1 to 1 µM.
With `O=C(Nc1c2c(c(C(F)(F)F)c3c1CCC3)CCC2)NS(=O)(=O)c1cc2c(o1)CCCC2O` (centres unmarked) [Compound 55, 4-hydroxy-N-((8-(trifluoromethyl)-1,2,3,5,6,7-hexahydro-s-indacen-4-yl)carbamoyl)-4,5,6,7-tetrahydrobenzofuran-2-sulfonamide] the IC50 was < 0.1 µM.
`O=C(Nc1c2c(cc3c1CCC3)CCC2)NS(=O)(=O)c1cc2c(o1)CCCC2(O)C(F)(F)F` (centres unmarked) [Compound 56, N-((1,2,3,5,6,7-hexahydro-s-indacen-4-yl)carbamoyl)-4-hydroxy-4-(trifluoromethyl)-4,5,6,7-tetrahydrobenzofuran-2-sulfonamide] was tested, and the IC50 was < 0.1 µM.
`CN1CCCc2oc(S(=O)(=O)NC(=O)Nc3c4c(cc5c3CCC5)CCC4)cc2C1=O` [Compound 57, N-((1,2,3,5,6,7-hexahydro-s-indacen-4-yl)carbamoyl)-5-methyl-4-oxo-5,6,7,8-tetrahydro-4H-furo[3,2-c]azepine-2-sulfonamide] showed an IC50 of 0.1 to 1 µM.
`CC1(O)CCCc2oc(S(=O)(=O)NC(=O)Cc3c4c(cc5c3CCC5)CCC4)cc21` (centres unmarked) [Compound 58, 2-(1,2,3,5,6,7-hexahydro-s-indacen-4-yl)-N-((4-hydroxy-4-methyl-4,5,6,7-tetrahydrobenzofuran-2-yl)sulfonyl)acetamide] showed an IC50 of 0.1 to 1 µM.
With `CC(C)c1cccc(C(C)C)c1NC(=O)NS(=O)(=O)c1cc2c(o1)CCCC2O` (centres unmarked) [Compound 59, N-((2,6-diisopropylphenyl)carbamoyl)-4-hydroxy-4,5,6,7-tetrahydrobenzofuran-2-sulfonamide] the IC50 was 0.1 to 1 µM.
In the case of `CC(C)c1cccc(C(C)C)c1NC(=O)NS(=O)(=O)c1cc2c(o1)CCCC2(C)O` (centres unmarked) [Compound 60, N-((2,6-diisopropylphenyl)carbamoyl)-4-hydroxy-4-methyl-4,5,6,7-tetrahydrobenzofuran-2-sulfonamide], the IC50 is reported as 0.1 to 1 µM.
For `CC(C)c1cc(Cl)cc(C(C)C)c1NC(=O)NS(=O)(=O)c1cc2c(o1)CCCC2O` (centres unmarked) [Compound 61, N-((4-chloro-2,6-diisopropylphenyl)carbamoyl)-4-hydroxy-4,5,6,7-tetrahydrobenzofuran-2-sulfonamide], the IC50 was 0.1 to 1 µM.
With `CC(C)c1cc(Cl)cc(C(C)C)c1NC(=O)NS(=O)(=O)c1cc2c(o1)CCCC2(C)O` (centres unmarked) [Compound 62, N-((4-chloro-2,6-diisopropylphenyl)carbamoyl)-4-hydroxy-4-methyl-4,5,6,7-tetrahydrobenzofuran-2-sulfonamide] the IC50 was < 0.1 µM.
`CC(C)c1cc(F)cc(C(C)C)c1NC(=O)NS(=O)(=O)c1cc2c(o1)CCCC2O` (centres unmarked) [Compound 63, N-((4-fluoro-2,6-diisopropylphenyl)carbamoyl)-4-hydroxy-4,5,6,7-tetrahydrobenzofuran-2-sulfonamide] gave an IC50 of 0.1 to 1 µM.
With `CC(C)c1cc(F)cc(C(C)C)c1NC(=O)NS(=O)(=O)c1cc2c(o1)CCCC2(C)O` (centres unmarked) [Compound 64, N-((4-fluoro-2,6-diisopropylphenyl)carbamoyl)-4-hydroxy-4-methyl-4,5,6,7-tetrahydrobenzofuran-2-sulfonamide] the IC50 was < 0.1 µM.
With `CC(C)c1ccc(Cl)c(C(C)C)c1NC(=O)NS(=O)(=O)c1cc2c(o1)CCCC2O` (centres unmarked) [Compound 65, N-((3-chloro-2,6-diisopropylphenyl)carbamoyl)-4-hydroxy-4,5,6,7-tetrahydrobenzofuran-2-sulfonamide] the IC50 was < 0.1 µM.
`CC(C)c1ccc(Cl)c(C(C)C)c1NC(=O)NS(=O)(=O)c1cc2c(o1)CCCC2(C)O` (centres unmarked) [Compound 66, N-((3-chloro-2,6-diisopropylphenyl)carbamoyl)-4-hydroxy-4-methyl-4,5,6,7-tetrahydrobenzofuran-2-sulfonamide] gave an IC50 of 0.1 to 1 µM.
Work on `CC(C)c1ccc(F)c(C(C)C)c1NC(=O)NS(=O)(=O)c1cc2c(o1)CCCC2O` (centres unmarked) [Compound 67, N-((3-fluoro-2,6-diisopropylphenyl)carbamoyl)-4-hydroxy-4,5,6,7-tetrahydrobenzofuran-2-sulfonamide] yielded an IC50 of 0.1 to 1 µM.
With `CC(C)c1ccc(F)c(C(C)C)c1NC(=O)NS(=O)(=O)c1cc2c(o1)CCCC2(C)O` (centres unmarked) [Compound 68, N-((3-fluoro-2,6-diisopropylphenyl)carbamoyl)-4-hydroxy-4-methyl-4,5,6,7-tetrahydrobenzofuran-2-sulfonamide] the IC50 was < 0.1 µM.
In the case of `CC(C)c1cc(Br)cc(C(C)C)c1NC(=O)NS(=O)(=O)c1cc2c(o1)CCCC2O` (centres unmarked) [Compound 69, N-((4-bromo-2,6-diisopropylphenyl)carbamoyl)-4-hydroxy-4,5,6,7-tetrahydrobenzofuran-2-sulfonamide], the IC50 is reported as 0.1 to 1 µM.
Molecule `CC(C)c1cc(Br)cc(C(C)C)c1NC(=O)NS(=O)(=O)c1cc2c(o1)CCCC2(C)O` (centres unmarked) [Compound 70, N-((4-bromo-2,6-diisopropylphenyl)carbamoyl)-4-hydroxy-4-methyl-4,5,6,7-tetrahydrobenzofuran-2-sulfonamide] has an IC50 of 0.1 to 1 µM.
`CC(C)c1cc(C#N)cc(C(C)C)c1NC(=O)NS(=O)(=O)c1cc2c(o1)CCCC2O` (centres unmarked) [Compound 71, N-((4-cyano-2,6-diisopropylphenyl)carbamoyl)-4-hydroxy-4,5,6,7-tetrahydrobenzofuran-2-sulfonamide] was tested, and the IC50 was 0.1 to 1 µM.
Molecule `CC(C)c1cc(C#N)cc(C(C)C)c1NC(=O)NS(=O)(=O)c1cc2c(o1)CCCC2(C)O` (centres unmarked) [Compound 72, N-((4-cyano-2,6-diisopropylphenyl)carbamoyl)-4-hydroxy-4-methyl-4,5,6,7-tetrahydrobenzofuran-2-sulfonamide] has an IC50 of 0.1 to 1 µM.
`CC(C)c1cccc(C(C)C)c1NC(=O)NS(=O)(=O)c1cc2c(o1)CCCC2=NO` [Compound 73, N-((2,6-diisopropylphenyl)carbamoyl)-4-(hydroxyimino)-4,5,6,7-tetrahydrobenzofuran-2-sulfonamide] showed an IC50 of 0.1 to 1 µM.
`CC(C)c1cccc(C(C)C)c1CC(=O)NS(=O)(=O)c1cc2c(o1)CCC(C)(C)C2O` (centres unmarked) [Compound 74, 2-(2,6-diisopropylphenyl)-N-((4-hydroxy-5,5-dimethyl-4,5,6,7-tetrahydrobenzofuran-2-yl)sulfonyl)acetamide] gave an IC50 of 1 to 10 µM.
Molecule `CC(C)c1cccc(C(C)C)c1CC(=O)NS(=O)(=O)c1cc2c(o1)CCC(C)(C)C2(C)O` (centres unmarked) [Compound 75, 2-(2,6-diisopropylphenyl)-N-((4-hydroxy-4,5,5-trimethyl-4,5,6,7-tetrahydrobenzofuran-2-yl)sulfonyl)acetamide] has an IC50 of 1 to 10 µM.
With `CC(C)c1cccc(C(C)C)c1CC(=O)NS(=O)(=O)c1cc2c(o1)CCC(C)(C)C2=O` [Compound 76, 2-(2,6-diisopropylphenyl)-N-((5,5-dimethyl-4-oxo-4,5,6,7-tetrahydrobenzofuran-2-yl)sulfonyl)acetamide] the IC50 was 1 to 10 µM.
With `CC(C)c1cc(Cl)cc(C(C)C)c1NC(=O)NS(=O)(=O)c1cc2c(o1)CCC/C2=N/O` [Compound 77, (Z)-N-((4-chloro-2,6-diisopropylphenyl)carbamoyl)-4-(hydroxyimino)-4,5,6,7-tetrahydrobenzofuran-2-sulfonamide] the IC50 was 0.1 to 1 µM.
`CC(C)c1cc(Cl)cc(C(C)C)c1NC(=O)NS(=O)(=O)c1cc2c(o1)CCC/C2=N\O` [Compound 78, (E)-N-((4-chloro-2,6-diisopropylphenyl)carbamoyl)-4-(hydroxyimino)-4,5,6,7-tetrahydrobenzofuran-2-sulfonamide] gave an IC50 of 1 to 10 µM.
`CC(C)c1ccc(Cl)c(C(C)C)c1NC(=O)NS(=O)(=O)c1cc2c(o1)CCC/C2=N/O` [Compound 79, (Z)-N-((3-chloro-2,6-diisopropylphenyl)carbamoyl)-4-(hydroxyimino)-4,5,6,7-tetrahydrobenzofuran-2-sulfonamide] gave an IC50 of 0.1 to 1 µM.
Molecule `CC(C)c1ccc(Cl)c(C(C)C)c1NC(=O)NS(=O)(=O)c1cc2c(o1)CCC/C2=N\O` [Compound 80, (E)-N-((3-chloro-2,6-diisopropylphenyl)carbamoyl)-4-(hydroxyimino)-4,5,6,7-tetrahydrobenzofuran-2-sulfonamide] has an IC50 of 0.1 to 1 µM.
